Measurements: patent US9765087B2, “Benzimidazole derivatives” (ENANTA PHARMACEUTICALS, INC., priority 2009, dated 2017)
pEC50: −log10 of the molar value. Like-named read-outs stand apart in the source and are kept apart here.

Key:
HCV 1b genotype replicon = assay: HCV replicon assay (qRT-PCR or luciferase), genotype 1b; format: cell-based; details: Hepatitis C virus
Outline: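 EC50 derived either from luciferase signal in Huh-luc/neo-ET replicon cells after 72 h compound exposure (0.2% DMSO, 37 °C) or from TaqMan qRT-PCR of replicon RNA normalized to GAPDH. MTS assay assessed cytotoxicity; combinations tested in 6-point two-fold checkerboards around each EC50.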

HCV 1a genotype replicon = assay: HCV replicon assay (qRT-PCR or luciferase), genotype 1a; format: cell-based; details: Hepatitis C virus
Outline: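 Bartenschlager HCV replicon Huh cells; EC50 from HCV RNA by TaqMan qRT-PCR normalised to GAPDH, cytotoxicity by MTS. Combination studies in Huh-luc/neo-ET cells seeded at 7,000/well, compounds in 6-point two-fold dilutions, 0.2% DMSO final, 72 h at 37 °C, luciferase read-out.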

[1] = Table 12, numeric values, read-out: 1b EC50
[2] = Table 12, range class, read-out: 1b EC50 Range
[3] = Table 12, range class, read-out: 1a EC50 Range
[4] = Table 12, numeric values, read-out: 1a EC50

SMILES	pEC50 (HCV 1b genotype replicon; [1])	pEC50 (HCV 1a genotype replicon; read-out: 1a EC50 Range, Table 12, range class)	pEC50 (HCV 1b genotype replicon; [2])	pEC50 (HCV 1a genotype replicon; [3])	pEC50 (HCV 1a genotype replicon; [4])
COC(=O)N[C@H](C(=O)N1CCC[C@H]1c1ncc(-c2ccc(C#Cc3ccc4nc([C@@H]5CC6(CC6)CN5C(=O)[C@H](NC(=O)OC)c5ccccc5)[nH]c4c3)cc2)[nH]1)C(C)C [Example 646]	11.30	> 9.00	–	–	–
COC(=O)N[C@H](C(=O)N1C[C@]2(CCCO2)C[C@H]1c1ncc(-c2ccc(C#Cc3ccc4nc([C@@H]5C[C@@]6(CCCO6)CN5C(=O)[C@@H](NC(=O)OC)C(C)C)[nH]c4c3)cc2)[nH]1)C(C)C [Example 625]	–	–	> 9.00	> 9.00	–
COC(=O)N[C@H](C(=O)N1C[C@@H](O)C[C@H]1c1nc(-c2ccc(C#Cc3ccc4[nH]c([C@@H]5C[C@@]6(CCCO6)CN5C(=O)[C@@H](NC(=O)OC)C(C)C)nc4c3)cc2)c[nH]1)C(C)C [Example 561]	10.62	–	–	> 9.00	–
COC(=O)N[C@H](C(=O)N1CCC[C@H]1c1nc(-c2ccc3nc(-c4ccc5[nH]c([C@@H]6CC7(CC7)CN6C(=O)[C@@H](NC(=O)OC)C(C)C)nc5c4)ncc3c2)c[nH]1)C(C)C [Example 644]	10.35	–	–	> 9.00	–
[2H]c1c([2H])c(-c2c[nH]c([C@@H]3CC4(CC4)CN3C(=O)[C@@H](NC(=O)OC)C(C)C)n2)c([2H])c([2H])c1C#Cc1ccc2[nH]c([C@@H]3CC4(CC4)CN3C(=O)[C@@H](NC(=O)OC)C(C)C)nc2c1 [Example 575]	–	–	> 9.00	> 9.00	–
COC(=O)N[C@@H](CCCNC(N)=O)C(=O)N1CC2(CC2)C[C@H]1c1nc(-c2ccc(C#Cc3ccc4[nH]c([C@@H]5CC6(CC6)CN5C(=O)[C@@H](NC(=O)OC)C(C)C)nc4c3)cc2)c[nH]1 [Example 616]	9.31	–	–	> 9.00	–
COC(=O)N[C@H](C(=O)N1CC2(CC2)C[C@H]1c1nc2cc(C#Cc3ccc(-c4c[nH]c([C@@H]5CCCN5C(=O)[C@H](NC(=O)OC)c5ccccc5)n4)cc3)ccc2[nH]1)C(C)C [Example 579]	–	–	> 9.00	> 9.00	–
COC(=O)N[C@H](C(=O)N1CC2(CC2)C[C@H]1c1ncc(-c2ccc(C#Cc3ccc4nc([C@@H]5C[C@H](C6CC6)CN5C(=O)[C@@H](NC(=O)OC)C(C)C)[nH]c4c3)cc2)[nH]1)C(C)C [Example 691]	–	–	> 9.00	> 9.00	–
COC(=O)N[C@H](C(=O)N1CC2(CC2)C[C@H]1c1nc(-c2ccc(C#Cc3ccc4[nH]c([C@@H]5C[C@@]6(CCOC6)CN5C(=O)[C@@H](NC(=O)OC)C(C)C)nc4c3)cc2)c[nH]1)C(C)C [Example 631]	11.10	–	–	> 9.00	–
COC(=O)N[C@H](C(=O)N1CCC[C@H]1c1nc(-c2ccc3nc(-c4ccc5[nH]c([C@@H]6CC7(CC7)CN6C(=O)[C@@H](NC(=O)OC)C(C)C)nc5c4)ccc3c2)c[nH]1)C(C)C [Example 574]	10.44	–	–	–	9.90
COC(=O)N[C@H](C(=O)N1CCC[C@H]1c1ncc(-c2ccc(C#Cc3ccc4nc([C@@H]5C[C@@]6(CCCOC6)CN5C(=O)[C@@H](NC(=O)OC)C(C)C)[nH]c4c3)cc2)[nH]1)C(C)C [Example 569]	11.05	–	–	> 9.00	–
COC(=O)N[C@H](C(=O)N1C[C@@H](OC)C[C@H]1c1nc(-c2ccc(C#Cc3ccc4[nH]c([C@@H]5C[C@@]6(CCCO6)CN5C(=O)[C@@H](NC(=O)OC)C(C)C)nc4c3)cc2)c[nH]1)C(C)C [Example 558]	–	–	> 9.00	> 9.00	–
COC(=O)N[C@H](C(=O)N1CC2(CC2)C[C@H]1c1ncc(-c2ccc(C#Cc3ccc4nc([C@@H]5C[C@]6(CCCOC6)CN5C(=O)[C@@H](NC(=O)OC)C(C)C)[nH]c4c3)cc2)[nH]1)C(C)C [Example 639]	11.10	–	–	> 9.00	–
COC(=O)N[C@H](C(=O)N1CC2(CC2)C[C@H]1c1ncc(-c2ccc(C#Cc3ccc4nc([C@@H]5CC6(CC6)CN5C(=O)[C@@H](NC(=O)OC)C5CCOCC5)[nH]c4c3)cc2)[nH]1)C1CCOCC1 [Example 583]	–	–	> 9.00	> 9.00	–
COC(=O)N[C@H](C(=O)N1CC2(CC2)C[C@H]1c1ncc(-c2ccc(C#Cc3ccc4nc([C@@H]5C[C@]6(CCOC6)CN5C(=O)[C@@H](NC(=O)OC)C(C)C)[nH]c4c3)cc2)[nH]1)C(C)C [Example 565]	10.96	–	–	> 9.00	–
COC(=O)N[C@H](C(=O)N1CC2(CC2)C[C@H]1c1ncc(-c2ccc(C#Cc3ccc4nc([C@@H]5C[C@@]6(CCCCO6)CN5C(=O)[C@@H](NC(=O)OC)C(C)C)[nH]c4c3)cc2)[nH]1)C(C)C [Example 633]	–	–	> 9.00	–	10.46
COC(=O)N[C@H](C(=O)N1CCC[C@H]1c1nc(-c2ccc(C#Cc3ccc4[nH]c([C@@H]5C[C@]6(CCOC6)CN5C(=O)[C@@H](NC(=O)OC)C(C)C)nc4c3)cc2)c[nH]1)C(C)C [Example 564]	11.10	–	–	> 9.00	–

SMILES	pEC50 (HCV 1b genotype replicon; [1])	pEC50 (HCV 1a genotype replicon; read-out: 1a EC50 Range, Table 12, range class)	pEC50 (HCV 1b genotype replicon; [2])	pEC50 (HCV 1a genotype replicon; [3])	pEC50 (HCV 1a genotype replicon; [4])
COC(=O)N[C@H](C(=O)N1CC2(CC2)C[C@H]1c1nc(-c2ccc(C#Cc3ccc4[nH]c([C@@H]5C[C@@]6(CCCO6)CN5C(=O)[C@@H](NC(=O)OC)C(C)C)nc4c3)cc2)c[nH]1)C(C)C [Example 555]	11.15	–	–	> 9.00	–
COC(=O)N[C@H](C(=O)N1CCC[C@H]1c1nc(-c2ccc(C#Cc3ccc4[nH]c([C@@H]5C[C@@]6(CCCO6)CN5C(=O)[C@@H](NC(=O)OC)C(C)C)nc4c3)cc2)c[nH]1)C(C)C [Example 551]	10.89	–	–	> 9.00	–
COC(=O)N[C@H](C(=O)N1C[C@@]2(C[C@H]1c1nc(-c3ccc(C#Cc4ccc5[nH]c([C@@H]6CC7(CC7)CN6C(=O)[C@@H](NC(=O)OC)C(C)C)nc5c4)cc3)c[nH]1)CC2(F)F)C(C)C [Example 687]	11.00	–	–	> 9.00	–
COC(=O)N[C@H](C(=O)N1CCC[C@H]1c1nc(-c2ccc3cc(-c4ccc5[nH]c([C@@H]6CC7(CC7)CN6C(=O)[C@@H](NC(=O)OC)C(C)C)nc5c4)ccc3c2)c[nH]1)C(C)C [Example 692]	10.96	–	–	> 9.00	–
COC(=O)N[C@H](C(=O)N1CC2(CC2)C[C@H]1c1ncc(-c2ccc(C#Cc3ccc4nc([C@@H]5C[C@@H](C6CC6)CN5C(=O)[C@@H](NC(=O)OC)C(C)C)[nH]c4c3)cc2)[nH]1)C(C)C [Example 612]	–	–	> 9.00	> 9.00	–
COC(=O)N[C@H](C(=O)N1CC2(CC2)C[C@H]1c1nc2ccc(C#Cc3ccc(-c4cnc([C@@H]5CC6(CC6)CN5C(=O)[C@H](NC(=O)OC)c5ccccc5)[nH]4)cc3)cc2[nH]1)C(C)C (stereo in doubt) [Example 647]	11.10	–	–	> 9.00	–
COC(=O)N[C@H](C(=O)N1CC2(CC2)C[C@H]1c1ncc(-c2ccc(C#Cc3ccc4nc([C@@H]5C[C@@]6(CCCOC6)CN5C(=O)[C@@H](NC(=O)OC)C(C)C)[nH]c4c3)cc2)[nH]1)C(C)C [Example 638]	11.15	–	–	> 9.00	–
COC(=O)N[C@H](C(=O)N1CCC[C@H]1c1ncc(-c2ccc(C#Cc3ccc4nc([C@@H]5C[C@@]6(CCC(=O)O6)CN5C(=O)[C@@H](NC(=O)OC)C(C)C)[nH]c4c3)cc2)[nH]1)C(C)C [Example 635]	–	–	> 9.00	> 9.00	–
COC(=O)N[C@H](C(=O)N1C[C@]2(C[C@H]1c1ncc(-c3ccc(C#Cc4ccc5nc([C@@H]6CC7(CC7)CN6C(=O)[C@@H](NC(=O)OC)C(C)C)[nH]c5c4)cc3)[nH]1)CC2(F)F)C(C)C [Example 614]	11.40	–	–	> 9.00	–
COC(=O)N[C@H](C(=O)N1CCC[C@H]1c1nc(-c2ccc(C#Cc3ccc4[nH]c([C@@H]5CC6(CCOCC6)CN5C(=O)[C@@H](NC(=O)OC)C(C)C)nc4c3)cc2)c[nH]1)C(C)C [Example 568]	11.05	–	–	> 9.00	–
COC(=O)NCCCC[C@H](NC(=O)OC)C(=O)N1CCC[C@H]1c1nc(-c2ccc(C#Cc3ccc4[nH]c([C@@H]5CC6(CC6)CN5C(=O)[C@@H](NC(=O)OC)C(C)C)nc4c3)cc2)c[nH]1 [Example 693]	–	–	> 9.00	> 9.00	–
COC(=O)N[C@H](C(=O)N1CC2(CC2)C[C@H]1c1ncc(-c2ccc(C#Cc3ccc4nc([C@@H]5CC6(CC6)CN5C(=O)[C@H](NC(=O)OC)c5ccc(F)cc5)[nH]c4c3)cc2)[nH]1)C(C)C [Example 580]	11.15	–	–	> 9.00	–
COC(=O)N[C@H](C(=O)N1CC2(CC2)C[C@H]1c1nc(-c2ccc(-c3ccc4[nH]c([C@@H]5CC6(CC6)CN5C(=O)[C@@H](NC(=O)OC)C(C)C)nc4c3)cc2)c[nH]1)C(C)C [Example 640]	10.52	–	–	8.00 to 9.00	–
COC(=O)N[C@H](C(=O)N1C[C@]2(CCCO2)C[C@H]1c1nc(-c2ccc(C#Cc3ccc4[nH]c([C@@H]5CC6(CC6)CN5C(=O)[C@@H](NC(=O)OC)C(C)C)nc4c3)cc2)c[nH]1)C(C)C [Example 546]	10.92	–	–	> 9.00	–
COC(=O)N[C@@H](CC#N)C(=O)N1CCC[C@H]1c1nc(-c2ccc(C#Cc3ccc4[nH]c([C@@H]5CC6(CC6)CN5C(=O)[C@@H](NC(=O)OC)C(C)C)nc4c3)cc2)c[nH]1 [Example 621]	–	–	> 9.00	–	9.68
COC(=O)N[C@H](C(=O)N1CCC[C@H]1c1nc(-c2ccc(C#Cc3ccc4[nH]c([C@@H]5C[C@@]6(CCOC6)CN5C(=O)[C@@H](NC(=O)OC)C(C)C)nc4c3)cc2)c[nH]1)C(C)C [Example 630]	10.96	–	–	> 9.00	–
